{"source": "the supplement of paper PMC10307832", "test_in_all_cases": "relative viability (nuclei count vs DMSO), 5 days (fraction); higher = more cells survive", "key": {"[1]": {"compound": "C1COCCN1C2=NC(=NC3=C2OC4=C3C=CC=N4)C5=CC(=CC=C5)NC(=O)C6=CN=C(C=C6)N + CC(=O)c1c(C)c2cnc(Nc3ccc(N4CCNCC4)cn3)nc2n(C2CCCC2)c1=O [Palbociclib] (partner 0.5 µM)", "method_in_brief": "(§1)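 Dosing by pin tool came one day after lung cancer cell lines were seeded in 1536-well plates, using either one drug or a fixed anchor-drug dose plus five library-drug doses (not always all listed) in √10 steps. After 5 days, nuclei were counted on 4× images. Relative viability is treated-well nuclei count divided by vehicle-well nuclei count, and values are medians of duplicate plates.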"}, "[2]": {"compound": "C1COCCN1C2=NC(=NC3=C2OC4=C3C=CC=N4)C5=CC(=CC=C5)NC(=O)C6=CN=C(C=C6)N + CS(=O)(=O)N1CCN(Cc2cc3nc(-c4cccc5[nH]ncc45)nc(N4CCOCC4)c3s2)CC1 [Pictilisib] (partner 1 µM)", "method_in_brief": "as §1"}, "SGI-1776 + Lapatinib": {"compound": "CN1CCC(CNc2ccc3ncc(-c4cccc(OC(F)(F)F)c4)n3n2)CC1 [SGI-1776] + CS(=O)(=O)CCNCc1ccc(-c2ccc3ncnc(Nc4ccc(OCc5cccc(F)c5)c(Cl)c4)c3c2)o1 [Lapatinib] (partner 2 µM)", "method_in_brief": "as §1"}, "SGI-1776 + Olaparib": {"compound": "CN1CCC(CNc2ccc3ncc(-c4cccc(OC(F)(F)F)c4)n3n2)CC1 [SGI-1776] + O=C(c1cc(Cc2n[nH]c(=O)c3ccccc23)ccc1F)N1CCN(C(=O)C2CC2)CC1 [Olaparib] (partner 8 µM)", "method_in_brief": "as §1"}}, "data": [{"cell line": "NCI-H520", "values": [{"measurement": "relative viability", "setting": "[1]; first compound 0.02 µM", "result": 0.206}, {"measurement": "relative viability", "setting": "[1]; first compound 0.06325 µM", "result": 0.236}, {"measurement": "relative viability", "setting": "[1]; first compound 0.2 µM", "result": 0.226}, {"measurement": "relative viability", "setting": "[1]; first compound 0.6325 µM", "result": 0.207}, {"measurement": "relative viability", "setting": "[1]; first compound 2 µM", "result": 0.189}, {"measurement": "relative viability", "setting": "[2]; first compound 0.02 µM", "result": 0.302}, {"measurement": "relative viability", "setting": "[2]; first compound 0.06325 µM", "result": 0.327}, {"measurement": "relative viability", "setting": "[2]; first compound 0.2 µM", "result": 0.274}, {"measurement": "relative viability", "setting": "[2]; first compound 0.6325 µM", "result": 0.293}, {"measurement": "relative viability", "setting": "[2]; first compound 2 µM", "result": 0.179}, {"measurement": "relative viability", "setting": "SGI-1776 + Lapatinib; first compound 0.08 µM", "result": 1.05}, {"measurement": "relative viability", "setting": "SGI-1776 + Lapatinib; first compound 0.8 µM", "result": 0.91}, {"measurement": "relative viability", "setting": "SGI-1776 + Lapatinib; first compound 2.53 µM", "result": 0.756}, {"measurement": "relative viability", "setting": "SGI-1776 + Lapatinib; first compound 8 µM", "result": 0.628}, {"measurement": "relative viability", "setting": "SGI-1776 + Olaparib; first compound 0.08 µM", "result": 0.36}, {"measurement": "relative viability", "setting": "SGI-1776 + Olaparib; first compound 0.8 µM", "result": 0.318}, {"measurement": "relative viability", "setting": "SGI-1776 + Olaparib; first compound 2.53 µM", "result": 0.386}, {"measurement": "relative viability", "setting": "SGI-1776 + Olaparib; first compound 8 µM", "result": 0.203}]}, {"cell line": "LU99A", "values": [{"measurement": "relative viability", "setting": "[1]; first compound 0.02 µM", "result": 0.412}, {"measurement": "relative viability", "setting": "[1]; first compound 0.06325 µM", "result": 0.448}, {"measurement": "relative viability", "setting": "[1]; first compound 0.2 µM", "result": 0.361}, {"measurement": "relative viability", "setting": "[1]; first compound 0.6325 µM", "result": 0.343}, {"measurement": "relative viability", "setting": "[1]; first compound 2 µM", "result": 0.29}, {"measurement": "relative viability", "setting": "[2]; first compound 0.02 µM", "result": 0.361}, {"measurement": "relative viability", "setting": "[2]; first compound 0.06325 µM", "result": 0.344}, {"measurement": "relative viability", "setting": "[2]; first compound 0.2 µM", "result": 0.308}, {"measurement": "relative viability", "setting": "[2]; first compound 0.6325 µM", "result": 0.321}, {"measurement": "relative viability", "setting": "[2]; first compound 2 µM", "result": 0.267}, {"measurement": "relative viability", "setting": "SGI-1776 + Lapatinib; first compound 0.08 µM", "result": 1.03}, {"measurement": "relative viability", "setting": "SGI-1776 + Lapatinib; first compound 0.8 µM", "result": 1.16}, {"measurement": "relative viability", "setting": "SGI-1776 + Lapatinib; first compound 2.53 µM", "result": 1.07}, {"measurement": "relative viability", "setting": "SGI-1776 + Lapatinib; first compound 8 µM", "result": 0.902}, {"measurement": "relative viability", "setting": "SGI-1776 + Olaparib; first compound 0.08 µM", "result": 0.304}, {"measurement": "relative viability", "setting": "SGI-1776 + Olaparib; first compound 0.8 µM", "result": 0.312}, {"measurement": "relative viability", "setting": "SGI-1776 + Olaparib; first compound 2.53 µM", "result": 0.305}, {"measurement": "relative viability", "setting": "SGI-1776 + Olaparib; first compound 8 µM", "result": 0.238}]}, {"cell line": "NCI-H1666", "values": [{"measurement": "relative viability", "setting": "[1]; first compound 0.02 µM", "result": 0.627}, {"measurement": "relative viability", "setting": "[1]; first compound 0.06325 µM", "result": 0.681}, {"measurement": "relative viability", "setting": "[1]; first compound 0.2 µM", "result": 0.672}, {"measurement": "relative viability", "setting": "[1]; first compound 0.6325 µM", "result": 0.622}, {"measurement": "relative viability", "setting": "[1]; first compound 2 µM", "result": 0.571}, {"measurement": "relative viability", "setting": "[2]; first compound 0.02 µM", "result": 0.466}, {"measurement": "relative viability", "setting": "[2]; first compound 0.06325 µM", "result": 0.38}, {"measurement": "relative viability", "setting": "[2]; first compound 0.2 µM", "result": 0.404}, {"measurement": "relative viability", "setting": "[2]; first compound 0.6325 µM", "result": 0.311}, {"measurement": "relative viability", "setting": "[2]; first compound 2 µM", "result": 0.41}, {"measurement": "relative viability", "setting": "SGI-1776 + Lapatinib; first compound 0.08 µM", "result": 0.645}, {"measurement": "relative viability", "setting": "SGI-1776 + Lapatinib; first compound 0.8 µM", "result": 0.765}, {"measurement": "relative viability", "setting": "SGI-1776 + Lapatinib; first compound 2.53 µM", "result": 0.581}, {"measurement": "relative viability", "setting": "SGI-1776 + Lapatinib; first compound 8 µM", "result": 0.35}, {"measurement": "relative viability", "setting": "SGI-1776 + Olaparib; first compound 0.08 µM", "result": 0.794}, {"measurement": "relative viability", "setting": "SGI-1776 + Olaparib; first compound 0.8 µM", "result": 0.782}, {"measurement": "relative viability", "setting": "SGI-1776 + Olaparib; first compound 2.53 µM", "result": 0.838}, {"measurement": "relative viability", "setting": "SGI-1776 + Olaparib; first compound 8 µM", "result": 0.729}]}, {"cell line": "NCI-H460", "values": [{"measurement": "relative viability", "setting": "[1]; first compound 0.02 µM", "result": 0.149}, {"measurement": "relative viability", "setting": "[1]; first compound 0.06325 µM", "result": 0.186}, {"measurement": "relative viability", "setting": "[1]; first compound 0.2 µM", "result": 0.112}, {"measurement": "relative viability", "setting": "[1]; first compound 0.6325 µM", "result": 0.146}, {"measurement": "relative viability", "setting": "[1]; first compound 2 µM", "result": 0.0961}, {"measurement": "relative viability", "setting": "[2]; first compound 0.02 µM", "result": 0.411}, {"measurement": "relative viability", "setting": "[2]; first compound 0.06325 µM", "result": 0.384}, {"measurement": "relative viability", "setting": "[2]; first compound 0.2 µM", "result": 0.255}, {"measurement": "relative viability", "setting": "[2]; first compound 0.6325 µM", "result": 0.355}, {"measurement": "relative viability", "setting": "[2]; first compound 2 µM", "result": 0.294}, {"measurement": "relative viability", "setting": "SGI-1776 + Lapatinib; first compound 0.08 µM", "result": 1.16}, {"measurement": "relative viability", "setting": "SGI-1776 + Lapatinib; first compound 0.8 µM", "result": 0.978}, {"measurement": "relative viability", "setting": "SGI-1776 + Lapatinib; first compound 2.53 µM", "result": 1.13}, {"measurement": "relative viability", "setting": "SGI-1776 + Lapatinib; first compound 8 µM", "result": 0.863}, {"measurement": "relative viability", "setting": "SGI-1776 + Olaparib; first compound 0.08 µM", "result": 0.503}, {"measurement": "relative viability", "setting": "SGI-1776 + Olaparib; first compound 0.8 µM", "result": 0.482}, {"measurement": "relative viability", "setting": "SGI-1776 + Olaparib; first compound 2.53 µM", "result": 0.431}, {"measurement": "relative viability", "setting": "SGI-1776 + Olaparib; first compound 8 µM", "result": 0.481}]}]}
